Measured values reported in the supplement of paper PMC8612539.
≈ marks a conversion by molar mass, not a printed value.

Test system: Mannheimia haemolytica
Experiment: minimum inhibitory concentration (MIC)
Method: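 Broth microdilution MIC (Sensititre BOPO7F bovine plate, CLSI methods) of 19 antimicrobials against field isolates of P. multocida, M. haemolytica, H. somni (deep nasopharyngeal swabs) and E. coli, Enterococcus spp. (rectal swabs) from weaned dairy heifers. Incubation 16-24 h at 35 C. MIC is the lowest concentration preventing visible growth. Values with <= or > lie at the tested range limits. Trimethoprim-sulfamethoxazole is given as the trimethoprim component of a 1:19 mixture.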

CO/N=C(\C(=O)N[C@@H]1C(=O)N2C(C(=O)O)=C(CSC(=O)c3ccco3)CS[C@H]12)c1csc(N)n1 [Ceftiofur]
Conditions	minimum inhibitory concentration [µg/mL]
isolate (source animal id): 8	≤ 0.25
isolate (source animal id): 13	≤ 0.25
isolate (source animal id): 18	≤ 0.25
isolate (source animal id): 21	≤ 0.25
isolate (source animal id): 25	≤ 0.25
isolate (source animal id): 27	≤ 0.25
isolate (source animal id): 28	2 (≈ 3.82 µM)
isolate (source animal id): 30	≤ 0.25
isolate (source animal id): 31	≤ 0.25
isolate (source animal id): 32	≤ 0.25
isolate (source animal id): 34	≤ 0.25
isolate (source animal id): 36	≤ 0.25
isolate (source animal id): 37	≤ 0.25
isolate (source animal id): 40	≤ 0.25
isolate (source animal id): 41	≤ 0.25
isolate (source animal id): 43	≤ 0.25
isolate (source animal id): 46	≤ 0.25
isolate (source animal id): 49	≤ 0.25
isolate (source animal id): 50	≤ 0.25
isolate (source animal id): 51	≤ 0.25
isolate (source animal id): 52	≤ 0.25
isolate (source animal id): 53	≤ 0.25
isolate (source animal id): 55	≤ 0.25
isolate (source animal id): 56	≤ 0.25
isolate (source animal id): 57	≤ 0.25
isolate (source animal id): 100	≤ 0.25
isolate (source animal id): 103	≤ 0.25
isolate (source animal id): 107	≤ 0.25
isolate (source animal id): 108	≤ 0.25
isolate (source animal id): 112	≤ 0.25
isolate (source animal id): 113	≤ 0.25
isolate (source animal id): 121	≤ 0.25
isolate (source animal id): 122	≤ 0.25
isolate (source animal id): 123	≤ 0.25
isolate (source animal id): 126	≤ 0.25
isolate (source animal id): 133	≤ 0.25
isolate (source animal id): 135	≤ 0.25
isolate (source animal id): 138	≤ 0.25
isolate (source animal id): 141	≤ 0.25
isolate (source animal id): 142	≤ 0.25
isolate (source animal id): 145	≤ 0.25
isolate (source animal id): 149	≤ 0.25
isolate (source animal id): 151	≤ 0.25
isolate (source animal id): 152	≤ 0.25
isolate (source animal id): 154	≤ 0.25
isolate (source animal id): 159	≤ 0.25
isolate (source animal id): 162	≤ 0.25
isolate (source animal id): 170	≤ 0.25
isolate (source animal id): 171	≤ 0.25
isolate (source animal id): 172	≤ 0.25
isolate (source animal id): 173	≤ 0.25
isolate (source animal id): 179	≤ 0.25
isolate (source animal id): 180	≤ 0.25
isolate (source animal id): 183	≤ 0.25
isolate (source animal id): 186	≤ 0.25
isolate (source animal id): 187	≤ 0.25
isolate (source animal id): 188	≤ 0.25
isolate (source animal id): 190	≤ 0.25
isolate (source animal id): 191	≤ 0.25
isolate (source animal id): 192	≤ 0.25
isolate (source animal id): 201	≤ 0.25
isolate (source animal id): 202	≤ 0.25
isolate (source animal id): 209	≤ 0.25
isolate (source animal id): 211	≤ 0.25
isolate (source animal id): 220	≤ 0.25
isolate (source animal id): 221	≤ 0.25
isolate (source animal id): 223	≤ 0.25
isolate (source animal id): 233	≤ 0.25
isolate (source animal id): 237	≤ 0.25
isolate (source animal id): 241	≤ 0.25
isolate (source animal id): 252	≤ 0.25
isolate (source animal id): 253	≤ 0.25
isolate (source animal id): 259	≤ 0.25
isolate (source animal id): 260	≤ 0.25
isolate (source animal id): 262	≤ 0.25
isolate (source animal id): 282	≤ 0.25
isolate (source animal id): 287	≤ 0.25
isolate (source animal id): 288	≤ 0.25
isolate (source animal id): 291	≤ 0.25
isolate (source animal id): 293	≤ 0.25
isolate (source animal id): 298	≤ 0.25
isolate (source animal id): 299	≤ 0.25
isolate (source animal id): 300	≤ 0.25
isolate (source animal id): 302	≤ 0.25
isolate (source animal id): 304	≤ 0.25
isolate (source animal id): 306	≤ 0.25
isolate (source animal id): 308	≤ 0.25
isolate (source animal id): 309	≤ 0.25
isolate (source animal id): 313	≤ 0.25
isolate (source animal id): 318	≤ 0.25
isolate (source animal id): 320	≤ 0.25
isolate (source animal id): 321	≤ 0.25
isolate (source animal id): 323	≤ 0.25
isolate (source animal id): 324	≤ 0.25
isolate (source animal id): 326	≤ 0.25
isolate (source animal id): 328	≤ 0.25
isolate (source animal id): 329	≤ 0.25
isolate (source animal id): 333	≤ 0.25
isolate (source animal id): 335	≤ 0.25
isolate (source animal id): 338	≤ 0.25

CCC[C@@H]1C[C@@H](C(=O)N[C@@H]([C@H]2O[C@H](SC)[C@H](O)[C@@H](O)[C@H]2O)[C@H](C)Cl)N(C)C1 [Clindamycin]
Conditions	minimum inhibitory concentration [µg/mL]
isolate (source animal id): 8	16 (≈ 37.6 µM)
isolate (source animal id): 13	16 (≈ 37.6 µM)
isolate (source animal id): 18	16 (≈ 37.6 µM)
isolate (source animal id): 21	16 (≈ 37.6 µM)
isolate (source animal id): 25	> 16
isolate (source animal id): 27	16 (≈ 37.6 µM)
isolate (source animal id): 28	16 (≈ 37.6 µM)
isolate (source animal id): 30	16 (≈ 37.6 µM)
isolate (source animal id): 31	16 (≈ 37.6 µM)
isolate (source animal id): 32	8 (≈ 18.8 µM)
isolate (source animal id): 34	16 (≈ 37.6 µM)
isolate (source animal id): 36	16 (≈ 37.6 µM)
isolate (source animal id): 37	16 (≈ 37.6 µM)
isolate (source animal id): 40	8 (≈ 18.8 µM)
isolate (source animal id): 41	16 (≈ 37.6 µM)
isolate (source animal id): 43	16 (≈ 37.6 µM)
isolate (source animal id): 46	16 (≈ 37.6 µM)
isolate (source animal id): 49	16 (≈ 37.6 µM)
isolate (source animal id): 50	16 (≈ 37.6 µM)
isolate (source animal id): 51	16 (≈ 37.6 µM)
isolate (source animal id): 52	16 (≈ 37.6 µM)
isolate (source animal id): 53	8 (≈ 18.8 µM)
isolate (source animal id): 55	8 (≈ 18.8 µM)
isolate (source animal id): 56	16 (≈ 37.6 µM)
isolate (source animal id): 57	> 16
isolate (source animal id): 100	16 (≈ 37.6 µM)
isolate (source animal id): 103	16 (≈ 37.6 µM)
isolate (source animal id): 107	16 (≈ 37.6 µM)
isolate (source animal id): 108	16 (≈ 37.6 µM)
isolate (source animal id): 112	> 16
isolate (source animal id): 113	> 16
isolate (source animal id): 121	> 16
isolate (source animal id): 122	16 (≈ 37.6 µM)
isolate (source animal id): 123	> 16
isolate (source animal id): 126	> 16
isolate (source animal id): 133	> 16
isolate (source animal id): 135	> 16
isolate (source animal id): 138	> 16
isolate (source animal id): 141	> 16
isolate (source animal id): 142	> 16
isolate (source animal id): 145	8 (≈ 18.8 µM)
isolate (source animal id): 149	8 (≈ 18.8 µM)
isolate (source animal id): 151	8 (≈ 18.8 µM)
isolate (source animal id): 152	16 (≈ 37.6 µM)
isolate (source animal id): 154	8 (≈ 18.8 µM)
isolate (source animal id): 159	> 16
isolate (source animal id): 162	> 16
isolate (source animal id): 170	16 (≈ 37.6 µM)
isolate (source animal id): 171	8 (≈ 18.8 µM)
isolate (source animal id): 172	16 (≈ 37.6 µM)
isolate (source animal id): 173	16 (≈ 37.6 µM)
isolate (source animal id): 179	8 (≈ 18.8 µM)
isolate (source animal id): 180	16 (≈ 37.6 µM)
isolate (source animal id): 183	16 (≈ 37.6 µM)
isolate (source animal id): 186	8 (≈ 18.8 µM)
isolate (source animal id): 187	16 (≈ 37.6 µM)
isolate (source animal id): 188	16 (≈ 37.6 µM)
isolate (source animal id): 190	16 (≈ 37.6 µM)
isolate (source animal id): 191	16 (≈ 37.6 µM)
isolate (source animal id): 192	8 (≈ 18.8 µM)
isolate (source animal id): 201	16 (≈ 37.6 µM)
isolate (source animal id): 202	8 (≈ 18.8 µM)
isolate (source animal id): 209	16 (≈ 37.6 µM)
isolate (source animal id): 211	16 (≈ 37.6 µM)
isolate (source animal id): 220	16 (≈ 37.6 µM)
isolate (source animal id): 221	16 (≈ 37.6 µM)
isolate (source animal id): 223	8 (≈ 18.8 µM)
isolate (source animal id): 233	16 (≈ 37.6 µM)
isolate (source animal id): 237	16 (≈ 37.6 µM)
isolate (source animal id): 241	16 (≈ 37.6 µM)
isolate (source animal id): 252	16 (≈ 37.6 µM)
isolate (source animal id): 253	16 (≈ 37.6 µM)
isolate (source animal id): 259	> 16
isolate (source animal id): 260	16 (≈ 37.6 µM)
isolate (source animal id): 262	16 (≈ 37.6 µM)
isolate (source animal id): 282	> 16
isolate (source animal id): 287	> 16
isolate (source animal id): 288	16 (≈ 37.6 µM)
isolate (source animal id): 291	16 (≈ 37.6 µM)
isolate (source animal id): 293	> 16
isolate (source animal id): 298	> 16
isolate (source animal id): 299	> 16
isolate (source animal id): 300	8 (≈ 18.8 µM)
isolate (source animal id): 302	> 16
isolate (source animal id): 304	> 16
isolate (source animal id): 306	16 (≈ 37.6 µM)
isolate (source animal id): 308	16 (≈ 37.6 µM)
isolate (source animal id): 309	16 (≈ 37.6 µM)
isolate (source animal id): 313	16 (≈ 37.6 µM)
isolate (source animal id): 318	8 (≈ 18.8 µM)
isolate (source animal id): 320	16 (≈ 37.6 µM)
isolate (source animal id): 321	16 (≈ 37.6 µM)
isolate (source animal id): 323	> 16
isolate (source animal id): 324	16 (≈ 37.6 µM)
isolate (source animal id): 326	> 16
isolate (source animal id): 328	16 (≈ 37.6 µM)
isolate (source animal id): 329	16 (≈ 37.6 µM)
isolate (source animal id): 333	16 (≈ 37.6 µM)
isolate (source animal id): 335	16 (≈ 37.6 µM)
isolate (source animal id): 338	16 (≈ 37.6 µM)
